In patent publication US20040086942A1, “Ige receptor antagonists” (priority 2003, published 2004):
pIC50: −log10 of the molar value. “And” between values parts separate entries of the source, which are not always exact repeats. Equal values may be shown once. Read-outs that look alike come from different tables or passages of the source. Where a SMILES comes first, the peptide text is derived from it. Bridges are numbered along the chain shown (N, C = ends). Roman numbers before positions name the chains, in order.

Experiments:
[1] = 2D NMR structural score versus reference peptide; type: physicochemical; parameters: key to Structure Score: +++, peptide structurally similar to reference; +, structurally similar to reference but significantly less stable; +/−, peptide has some elements of stable structure, but the conformation differs from the reference structure; −, peptide is predominantly unstructured; *peptide IGE037 (SEQ ID NO:128) was initially unstructured (monomeric form), but became structured after spontaneous dimer formation; settings: reference IGE134
How it was run: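 Backbone ¹H resonances assigned by 2D NMR and ³JHN-Hα coupling constants measured against a reference peptide. Structure scored similar when chemical shifts, coupling constants and NOEs are consistent with the reference structure.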

FcεRIα = molecular target: T1, FcεRIα (Homo sapiens, UniProt P12319); experiment: surface plasmon resonance biosensor direct-binding assay; settings: midpoint of 4-parameter fit to peptide saturation curve, immobilized receptor; read-out: Binding affinity: EC50 (uM) ± s.d.
T1 construct: human FcεRI(aa 1-176) was expressed using a baculovirus secretion expression system; host or cells: Hi-5 insect cells infected with baculovirus (virus produced in Sf9; transfer vector pAcGP67)
T1 sequence (P12319 26-201): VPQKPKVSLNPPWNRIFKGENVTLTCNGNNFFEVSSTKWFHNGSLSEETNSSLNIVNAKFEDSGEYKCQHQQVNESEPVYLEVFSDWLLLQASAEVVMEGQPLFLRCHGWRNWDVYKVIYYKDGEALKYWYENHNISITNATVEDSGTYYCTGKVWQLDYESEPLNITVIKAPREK
Protocol: Several peptides were also tested in a direct-binding assay using a surface plasmon resonance biosensor (Lofas & Johnsson, J. Chem. Soc. Commun. 21, 1526-1528 (1990)). FcεRIα, produced in baculovirus infected insect cells, was immobilized by the surface thiol method (BIAcore Methods Manual Supplement 5a, BIAcore, Inc., Piscataway, N.J.). Briefly, receptor was reacted with 2-(2pyridinyldithio)ethaneamine hydrochloride (PDEA; Natake & Swaisgood, J. Biochem. 74, 77-86 (1973)), desalted into 10 mM sodium acetate (pH 4.8) and stored in aliquots at −80″C. Thawed PDEA-receptor was injected over carboxymethyl-dextran (B1 or CM5, BIAcore, Inc.) biosensor chips preactivated with N-ethyl-N′-(3-dimethylaminopropyl)-carbodiimide hydrochloride (EDC) and N-hydroxysuccinimide (NHS), cystamine, and DTT. Following coupling, reactive groups on the chip were quenched with […] and ethanolarine. Serial dilutions of peptide in running buffer (phosphate-buffered saline containing 0.05% Tween-20, 0.01% sodium azide) were injected over the immobilized receptor, and the net amount of peptide bound at steady-state was measured as the net change in response (RU) at a point just prior to termination of peptide injection, compared to a running-buffer baseline. Binding affinities (Table 10) are reported as the midpoint (EC50) of a 4-parameter fit to the peptide saturation curve.

[2] = molecular target: T2, alpha subunit of the human FcεRI receptor (Homo sapiens, UniProt P12319); experiment: cell-based 125I-IgE binding inhibition assay on CHO FcεRI+ cells; settings: for IC50: IgE-inhibition activity of synthetic peptides, read-out: Inhibition activity: C+hd 50 +l (uM) ± s.d.
T2 construct: expressed in transfected cells; host or cells: Chinese hamster ovary (CHO FcεRI+) cells
T2 sequence (P12319 26-257): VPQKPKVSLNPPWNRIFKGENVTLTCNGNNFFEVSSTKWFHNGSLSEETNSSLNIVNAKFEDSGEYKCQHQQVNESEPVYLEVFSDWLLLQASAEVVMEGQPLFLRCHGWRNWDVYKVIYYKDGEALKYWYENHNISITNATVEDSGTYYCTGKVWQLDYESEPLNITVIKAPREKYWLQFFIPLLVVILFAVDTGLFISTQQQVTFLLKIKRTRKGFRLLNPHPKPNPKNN
How it was run: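 Peptides, serially diluted 1:3 from 50-500 uM, preincubated 1 h at room temperature on CHO cells expressing human FcεRI alpha, then 1.5 nM 125I-IgE added for 45-60 min at 4 °C. Buffer F12/DMEM, 1% BSA, 0.05% NaN3, pH 7.2. Bound counts by gamma counting; IC50 from 4-parameter fits.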

FcεRI-IgG = molecular target: T3, FcεRI-IgG (Homo sapiens, UniProt P12319); experiment: g3 phage competitive binding ELISA (competition with soluble FcεRI-IgG); settings: for Relative (IC50) (fold weaker): relative to g3c.42, NDB = no detectable binding
T3 construct: consisting of the extracellular domain of FcεR Ifused to the Fc domain of IgG; host or cells: CHO cells
T3 sequence (P12319 26-205 limits assumed): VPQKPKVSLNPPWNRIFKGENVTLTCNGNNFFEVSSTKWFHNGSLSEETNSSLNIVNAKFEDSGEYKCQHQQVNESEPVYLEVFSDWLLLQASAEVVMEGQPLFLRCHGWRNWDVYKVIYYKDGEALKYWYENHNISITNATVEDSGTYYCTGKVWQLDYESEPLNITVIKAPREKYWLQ
Protocol: A phage based competitive binding ELISA for immobilized FcεRI-IgG in the presence of titrated amounts of soluble FcεRI-IgG was performed on each of the clones.
Peptide sequences from g8p-fused phage clones that specifically bound FcεRI-IgG were transferred onto a g3p-display format for monovalent phage display (Bass et al., Proteins 8, 309-314 (1990); Lowman et al., Biochemistry 30, 10832-10838 (1991)). An oligonucleotide encoding for each desired peptide with additional 5′ and 3′ base pair that overlapped with g3 was synthesized. This oligonucleotide was annealed with a g3 single stranded DNA phagemid template. The mutagenesis reaction was transformed into XL-1 Blue E. coli and plated on LB-carb+ agar plates. Individual colonies were propagated in 5 mL of 2YT broth, tetracycline, carbenicillin and VCSM13 helper phage (Stratagene). Single stranded DNA was isolated from the purified phage particles and sequenced to confirm the insertion of the phage peptide sequence. 25 mL preparations of g3 phage clones were propagated overnight and purified by PEG precipitation. After resuspension of the phage pellet in 1.0 mL of PBS, it was serially diluted ⅓ and incubated with immobilized FcεRI-IgG 2 ug/mL in a 96 well Maxisorp microtiter plate for 1 hour at room temperature. The wells were washed 10× with PBST then incubated with 100 uL of anti M13 phage HRP as described above. An OD(492) value corresponding to less than 50% binding was selected and the purified phage clones were diluted to yield this normalized level of signal. […] The mixture was then transferred to 96 well microtiter dishes containing immobilized FcεRI-IgG. After a 1-hour incubation period, the plates were washed 10 times, incubated with anti M13-HRP conjugated antibody and developed with OPD as described above. The data was plotted, and 4-parameter fits (KaleidaGraph 3.0) used for calculation of IC50 values.
Alanine substitutions were made at various positions throughout the peptide sequence for monovalent (g3p) phage display using site directed mutagenesis as described (Kunkel et al., Methods Enzymol. 204, 125-139 (1991)). In addition, stepwise N-terminal and C-terminal truncations of the peptide sequence were constructed. All constructs were made by designing oligonucleotides corresponding to the desired substitution or truncation, with an additional 18 bp of DNA overlapping the peptide or g3 phage DNA sequence. The phage clones were propagated overnight following infection in XL-1 Blue E. coli. Purified phage preparations were titered and assayed for binding to immobilized receptor. FcεRI-IgG competition assays were performed as described above.

FcεRI = molecular target: T4, FcεRI (Homo sapiens, UniProt P12319); experiment: competitive phage ELISA on baculovirus-derived FcεRI; type: binding; settings: for relative binding affinity (in words): compared with the parent
T4 construct: human FcεRI(aa 1-176) was expressed using a baculovirus secretion expression system; host or cells: Hi-5 insect cells infected with baculovirus (virus produced in Sf9; transfer vector pAcGP67)
T4 sequence (P12319 26-201): T1 sequence (P12319 26-201)
From the text: The extracellular domain of the alpha subunit of the human FcεRI(aa 1-176) was expressed using a baculovirus secretion expression system (Pharminten). cDNA encoding this domain was obtained through PCR of a plasmid containing a full length clone. The DNA fragment was ligated into baculovirus tranfer vector pAcGP67 and along with BaculoGold linearized baculovirus DNA was transfected into Sf9 cells Spodoptera frugiperda insect cells for baculovirus production (Pharmingen). Soluble FcεRI was affinity purified from the growth media of baculovirus infected Hi-5 insect cells (Expression Systems).
Phage ELISA assays were carried out as described (Lowman, 1998, supra), using Nunc Maxisorp™ plates coated with a 2 μg/mL solution of baculovirus-derived FcεRI. Peptide-phage were pre-incubated for 5-10 min with serial dilutions of receptor, then added to the receptor-coated plate. After incubation for 1 h at room temperature, the plates were washed and an anti-phage HRP-conjugated antibody (Pharmacia) was added. After further incubation for 20 min, plates were again washed and developed using the substrate OPD (Sigma). Optical density at 492 nm was read and plotted as a function of FcεRI concentration to determine an IC50 of inhibition by each peptide-phage variant.
A phage-based alanine scanning approach was used to map the FcεRI binding determinants of IGE134 (SEQ ID NOS:155, 171), as described above for IGE120 (SEQ ID NO:131, 159). […] Additionally, combinations of Ala mutations, deletions, and other substitutions were tested.

[3] = g3 phage clones, immobilized FcεRI-IgG, titrated soluble FcεRI-IgG, read-out: Phage IC50
[4] = truncated peptides on g3 phage, read-out: IC50

For `CC(C)C[C@H](NC(=O)[C@H](C)N)C(=O)N[C@H]1CSSC[C@H](NC(=O)[C@H](CC(C)C)NC(=O)[C@H](C)N)C(=O)N2CCC[C@H]2C(=O)N[C@@H](C)C(=O)N[C@@H](C(C)C)C(=O)N[C@H](C(=O)N[C@@H](Cc2ccc(O)cc2)C(=O)N[C@H](C(N)=O)C(C)C)CSSC[C@@H](C(=O)N[C@@H](Cc2ccc(O)cc2)C(=O)N[C@H](C(N)=O)C(C)C)NC(=O)[C@H](C(C)C)NC(=O)[C@H](C)NC(=O)[C@@H]2CCCN2C1=O` [IGE088, ALCPAVCYV-nh2] (I: H-ALCPAVCYV-NH2 / II: H-ALCPAVCYV-NH2; disulfide I:3-II:3, I:7-II:7; N-terminus assumed), the “Structure Score” value [1] was “+/−”, the EC50 (FcεRIα) was > 450 µM and the IC50 [2] was > 450 µM.

With `CC(C)C[C@H](NC(=O)[C@H](C)N)C(=O)N[C@H]1CSSC[C@@H](C(=O)N[C@@H](Cc2ccc(O)cc2)C(=O)N[C@H](C(N)=O)C(C)C)NC(=O)[C@H](C(C)C)NC(=O)[C@H](C)NC(=O)[C@@H]2CCCN2C(=O)[C@@H](NC(=O)[C@H](CC(C)C)NC(=O)[C@H](C)N)CSSC[C@@H](C(=O)N[C@@H](Cc2ccc(O)cc2)C(=O)N[C@H](C(N)=O)C(C)C)NC(=O)[C@H](C(C)C)NC(=O)[C@H](C)NC(=O)[C@@H]2CCCN2C1=O` [IGE089] (I: H-ALCPAVCYV-NH2 / II: H-ALCPAVCYV-NH2; disulfide I:3-II:7, I:7-II:3) the “Structure Score” value [1] was “+++”, the EC50 (FcεRIα) was 64 µM and the “inhibiting 125I-IgE binding to cell surface expressed FcεRI (in words)” value [2] was “Significant inhibitory activity”. It also gave an IC50 [2] of 64 µM.

In the case of `CC(C)[C@H](N)C(=O)N[C@@H](CCC(N)=O)C(=O)N[C@H]1CSSC[C@@H](C(=O)N[C@@H](Cc2ccc(O)cc2)C(=O)N[C@H](C(N)=O)C(C)C)NC(=O)[C@H](Cc2ccccc2)NC(=O)[C@H](Cc2c[nH]cn2)NC(=O)[C@@H]2CCCN2C1=O` [IGE129, VQCPHFCYV-nh2] (H-VQCPHFCYV-NH2; disulfide 3-7), the EC50 (FcεRIα) was > 90 µM.

In the case of AMAQCTEGPWGWVCMAAD [g3b.5], the pIC50 (FcεRI-IgG; [3]) was 8.00.

With CTEGPWGWVCMAAD [g3c.21] the “Relative (IC50) (fold weaker)” value (FcεRI-IgG; truncated peptides on g3 phage) was “NDB”.

Work on DLPACTEGPWGWVCMAAD [g3b.7] yielded a pIC50 (FcεRI-IgG; [3]) of 8.05.

GRAQCTEGPWGWVCMAAD [g3b.6] showed a pIC50 (FcεRI-IgG; [3]) of 7.80.

GRTECTEGPWGWVCMAAD [g3b.8] showed a pIC50 (FcεRI-IgG; [3]) of 7.85.

For “IVCPRLCYVGGKALCPDVCAV [SEQ ID NO:143]”, the “fold reduction in binding affinity compared to IGE120” value (FcεRI; IGE120-phage alanine scan) was “No detectable binding”.

With “IVCPRLCYVGGKALCPDVCYV [SEQ ID NO:131]” the “relative binding affinity (in words)” value (FcεRI) was “improved binding affinity”.

With IVCPRLCYELDYELCPDVCYV the “fold improved affinity over IGE120” value (FcεRI; clone from IGE120-phage library) was “about 2 fold”.

With LPRCTEGPWGWVCMAAD [g3c.1] the “Relative (IC50) (fold weaker)” value (FcεRI-IgG; truncated peptides on g3 phage) was 1X and the pIC50 (FcεRI-IgG; [4]) was 8.52.

For NLPRCTEGPWGWVCM [g3c.34], the “Relative (IC50) (fold weaker)” value (FcεRI-IgG; truncated peptides on g3 phage) was 3X and the pIC50 (FcεRI-IgG; [4]) was 7.84.

For NLPRCTEGPWGWVCMA [g3c.31], the “Relative (IC50) (fold weaker)” value (FcεRI-IgG; truncated peptides on g3 phage) was 1X and the pIC50 (FcεRI-IgG; [4]) was 8.21.

For NLPRCTEGPWGWVCMAA [g3c.29], the “Relative (IC50) (fold weaker)” value (FcεRI-IgG; truncated peptides on g3 phage) was 1X and the pIC50 (FcεRI-IgG; [4]) was 8.30.

With NLPRCTEGPWGWVCMAAD [g3b.1] the pIC50 (FcεRI-IgG; [3]) was 7.89.

With NLPRCTEGPWGWVCMAAD [g3c.42] the “Relative (IC50) (fold weaker)” value (FcεRI-IgG; truncated peptides on g3 phage) was 1X and the pIC50 (FcεRI-IgG; [4]) was 8.51 and 8.25.

For NLPTCTEGPWGWVCMAAD [g3b.3], the pIC50 (FcεRI-IgG; [3]) was 8.15.

For RCTEGPWGWVCMAAD [g3c.17], the “Relative (IC50) (fold weaker)” value (FcεRI-IgG; truncated peptides on g3 phage) was “NDB”.

In the case of VMPTCTEGPWGWVCMAAD [g3b.4], the pIC50 (FcεRI-IgG; [3]) was 8.15.

With VQCPHFCYVGGKALCPDVCYV the “relative binding affinity (in words)” value (FcεRI) was “improved binding affinity”.
